Source: PubChem BioAssay AID330 (DTP/NCI, 2004)
Several values for one entry are separate records, joined by “and”; a condition that tells them apart may be missing. Equal entries are not always repeated. Toxic doses and inconclusive results are not listed. How the source made its calls: active means survival T/C of 150% or more; inactive means T/C below 125% in these data. Peptide text beside a SMILES is read from it.

System: P388 leukemia ip, CD2F1 mice, survival T/C
Experiment: NCI In Vivo Anticancer Drug Screen. Data for tumor model P388 Leukemia (intraperitoneal) in CD2F1 (CDF1) mice
Details: endpoint: median survival time, higher = longer survival
How it was run: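 Mice carrying the transplanted tumor received test compound or vehicle. Survival was recorded in each group, and the value is the treated-group measurement divided by that of the vehicle-treated control group.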

[1] = dose: 60.0 mg/kg/injection, schedule: Q01DX005 (ip), vehicle: Klucel (hydroxypropylcellulose) (HPC)
[2] = dose: 120.0 mg/kg/injection, schedule: Q01DX005 (ip), vehicle: Klucel (hydroxypropylcellulose) (HPC)
[3] = dose: 240.0 mg/kg/injection, schedule: Q01DX005 (ip), vehicle: Klucel (hydroxypropylcellulose) (HPC)
[4] = dose: 25.0 mg/kg/injection, schedule: Q01DX009 (ip), vehicle: saline with Tween-80
[5] = dose: 50.0 mg/kg/injection, schedule: Q01DX009 (ip), vehicle: saline with Tween-80
[6] = dose: 50.0 mg/kg/injection, schedule: Q01DX005 (ip), vehicle: Klucel (hydroxypropylcellulose) (HPC)
[7] = dose: 100.0 mg/kg/injection, schedule: Q01DX005 (ip), vehicle: Klucel (hydroxypropylcellulose) (HPC)
[8] = dose: 200.0 mg/kg/injection, schedule: Q01DX005 (ip), vehicle: Klucel (hydroxypropylcellulose) (HPC)
[9] = dose: 200.0 mg/kg/injection, schedule: Q04DX003 (ip), vehicle: saline
[10] = dose: 400.0 mg/kg/injection, schedule: Q04DX003 (ip), vehicle: saline
[11] = dose: 50.0 mg/kg/injection, schedule: Q01DX005 (ip), vehicle: saline with Tween-80
[12] = dose: 100.0 mg/kg/injection, schedule: Q01DX005 (ip), vehicle: saline with Tween-80
[13] = dose: 50.0 mg/kg/injection, schedule: Q01DX009 (ip), vehicle: Klucel (hydroxypropylcellulose) (HPC)
[14] = dose: 100.0 mg/kg/injection, schedule: Q01DX009 (ip), vehicle: Klucel (hydroxypropylcellulose) (HPC)
[15] = dose: 200.0 mg/kg/injection, schedule: Q01DX009 (ip), vehicle: Klucel (hydroxypropylcellulose) (HPC)
[16] = dose: 100.0 mg/kg/injection, schedule: Q01DX009 (ip), vehicle: saline with Tween-80
[17] = dose: 200.0 mg/kg/injection, schedule: Q01DX009 (ip), vehicle: saline with Tween-80
[18] = dose: 400.0 mg/kg/injection, schedule: Q01DX009 (ip), vehicle: saline with Tween-80

Measured: T/C

Clc1ccc(C(Nc2nncs2)Nc2nncs2)cc1Cl
inactive: [1] 94 % of control | [2] 96 % of control | [3] 102 % of control

CCN(CC)[P+](C1=C(Cl)C(=O)C(C#N)=C(C#N)C1=O)(N(CC)CC)N(CC)CC
inactive: dose: 3.1 mg/kg/injection, schedule: Q01DX009 (ip), vehicle: saline with Tween-80 108 % of control | dose: 6.25 mg/kg/injection, schedule: Q01DX009 (ip), vehicle: saline with Tween-80 99 % of control | dose: 12.5 mg/kg/injection, schedule: Q01DX009 (ip), vehicle: saline with Tween-80 99 % of control | [4] 87 % of control | [5] 101 % of control

O=C(O)CNC(=O)Cc1cccc2ccccc12
inactive: [6] 102 % of control | [7] 98 % of control | [8] 95 % of control

CN(C)Cc1c(O)c2ccc(N(C)C)cc2[nH]c1=O
inactive: [1] 92 % of control | [2] 90 % of control | [3] 96 % of control

NCCc1ccccc1
inactive: dose: 50.0 mg/kg/injection, schedule: Q01DX009 (ip), vehicle: saline 104 % of control | dose: 100.0 mg/kg/injection, schedule: Q01DX009 (ip), vehicle: saline 86 % of control

O=C1C(=O)N(c2ccccc2)C(=O)N1CCN1C(=O)C(=O)N(c2ccccc2)C1=O
inactive: dose: 3.75 mg/kg/injection, schedule: Q01DX005 (ip), vehicle: saline with Tween-80 100 % of control | dose: 7.5 mg/kg/injection, schedule: Q01DX005 (ip), vehicle: saline with Tween-80 90 % of control | dose: 15.0 mg/kg/injection, schedule: Q01DX005 (ip), vehicle: saline with Tween-80 95 % of control

CC(C)CC(NC(=O)C(N)Cc1c[nH]c2ccccc12)C(N)=O (stereo not drawn) (H-Trp-Leu-NH2; configuration not given here)
inactive: [9] 95 % of control | [10] 106 % of control

CCCCCCCCC[N+]1(CC)CCCC1
inactive: dose: 6.25 mg/kg/injection, schedule: Q01DX009 (ip), vehicle: saline 117 % of control | dose: 12.5 mg/kg/injection, schedule: Q01DX009 (ip), vehicle: saline 117 % of control | dose: 25.0 mg/kg/injection, schedule: Q01DX009 (ip), vehicle: saline 91 % of control

COc1cc2c(cc1O)CCCC=C2
inactive: dose: 100.0 mg/kg/injection, schedule: Q01DX009 (ip), vehicle: gum acacia 113 % of control | dose: 200.0 mg/kg/injection, schedule: Q01DX009 (ip), vehicle: gum acacia 105 % of control | dose: 400.0 mg/kg/injection, schedule: Q01DX009 (ip), vehicle: gum acacia 106 % of control

COC(=O)C(Cc1ccccc1)NC(=O)C(CC(C)C)NC(=O)C(CC(C)C)NC(=O)C(N)CC(C)C (stereo unspecified) (H-LLLF-OMe; configuration not given here)
inactive: [11] 98 % of control | [12] 104 % of control

CC(C)(C)c1ccc(C(=O)Nc2ccc(S(N)(=O)=O)cc2)cc1
inactive: [13] 100 % of control | [14] 100 % of control | [15] 101 % of control

CC(O)C(c1ccccc1)S(C)(=O)=O (stereo unspecified)
inactive: [4] 101 % of control | [5] 110 % of control | [16] 116 % of control | [17] 113 % of control

O=C(N/N=C/c1ccccc1O)N/N=C/c1ccccc1O
inactive: [5] 96 % of control | [16] 96 % of control | [17] 96 % of control | [18] 87 % of control

O=c1c(SSc2coc3ccccc3c2=O)coc2ccccc12
inactive: dose: 60.0 mg/kg/injection, schedule: Q01DX005 (ip), vehicle: saline with Tween-80 116 % of control | dose: 120.0 mg/kg/injection, schedule: Q01DX005 (ip), vehicle: saline with Tween-80 102 % of control | dose: 240.0 mg/kg/injection, schedule: Q01DX005 (ip), vehicle: saline with Tween-80 106 % of control

CCC1=C2C(=O)c3ccccc3C2=C(C)S(=O)(=O)O1
inactive: dose: 50.0 mg/kg/injection, schedule: Q04DX003 (ip), vehicle: saline with Tween-80 109 % of control | dose: 100.0 mg/kg/injection, schedule: Q04DX003 (ip), vehicle: saline with Tween-80 86 % of control

CCCCN1C(=S)NC(OC)C1(C)C (stereo unspecified)
inactive: dose: 50.0 mg/kg/injection, schedule: Q01DX009 (ip), vehicle: suspension in saline 100 % of control | dose: 100.0 mg/kg/injection, schedule: Q01DX009 (ip), vehicle: suspension in saline 94 % of control | dose: 200.0 mg/kg/injection, schedule: Q01DX009 (ip), vehicle: suspension in saline 100 % of control

N#CSCCC(=O)Nc1ccccc1
inactive: dose: 6.25 mg/kg/injection, schedule: Q01DX005 (ip), vehicle: Klucel (hydroxypropylcellulose) (HPC) 102 % of control | dose: 12.5 mg/kg/injection, schedule: Q01DX005 (ip), vehicle: Klucel (hydroxypropylcellulose) (HPC) 101 % of control | dose: 25.0 mg/kg/injection, schedule: Q01DX005 (ip), vehicle: Klucel (hydroxypropylcellulose) (HPC) 104 % of control

CCOC(=O)C(C#N)C(c1ccc2c(c1)OCO2)N(CCO)CCO (stereo unspecified)
inactive: [6] 93 % of control | [7] 99 % of control | [8] 99 % of control

CN(C)[C@@H]1C(=O)C(C(=O)NCNc2nc3n[nH]nc3c(=O)[nH]2)=C(O)[C@@]2(O)C(=O)C3=C(O)c4c(O)cccc4[C@@](C)(O)[C@H]3C[C@@H]12
inactive: dose: 50.0 mg/kg/injection, schedule: Q04DX003 (ip), vehicle: saline 102 % of control | dose: 100.0 mg/kg/injection, schedule: Q04DX003 (ip), vehicle: saline 100 % of control | [9] 107 % of control | [10] 111 % of control

O=C(Cc1cc(-c2ccccc2)nc(=O)[nH]1)c1ccccc1
inactive: dose: 100.0 mg/kg/injection, schedule: Q04DX002 (ip), vehicle: saline with Tween-80 97 % of control | dose: 200.0 mg/kg/injection, schedule: Q04DX002 (ip), vehicle: saline with Tween-80 93 % of control

C1=C(c2ccccc2)C(c2ccc(OCCN3CCCCC3)cc2)Oc2ccccc21 (stereo unspecified)
inactive: [11] 92 % of control | [12] 86 % of control

CNCC(=O)NC(CO)C(=O)NC(CO)C(=O)NC1C(C(N)=O)OC(n2ccc(N)nc2=O)C(O)C1O (stereo unspecified)
inactive: dose: 0.1 mg/kg/injection, schedule: Q01DX009 (ip), vehicle: water 101 % of control | dose: 0.2 mg/kg/injection, schedule: Q01DX009 (ip), vehicle: water 100 % of control | dose: 0.4 mg/kg/injection, schedule: Q01DX009 (ip), vehicle: water 117 % of control | dose: 0.8 mg/kg/injection, schedule: Q01DX009 (ip), vehicle: water 95 % of control

C1Cc2c3c(c4c(c2C1)CCC4)CCC3
inactive: dose: 25.0 mg/kg/injection, schedule: Q01DX009 (ip), vehicle: Klucel (hydroxypropylcellulose) (HPC) 91 % of control | [13] 95 % of control | [14] 91 % of control | [15] 100 % of control

C#CC1CCC(NC(=O)NCCCCCCNC(=O)NC2CCC(C#C)CC2)CC1 (stereo unspecified)
inactive: [6] 90 % of control | [7] 94 % of control | [8] 86 % of control

ClC1=CC(Cl)=C2N=C(C(Cl)(Cl)Cl)N=C3N=C(C(Cl)(Cl)Cl)N=C1N32
inactive: dose: 15.0 mg/kg/injection, schedule: Q01DX005 (ip), vehicle: Klucel + Tween-80 101 % of control | dose: 30.0 mg/kg/injection, schedule: Q01DX005 (ip), vehicle: Klucel + Tween-80 95 % of control | dose: 60.0 mg/kg/injection, schedule: Q01DX005 (ip), vehicle: Klucel + Tween-80 99 % of control and 100 % of control

[CH3][Sn]([CH3])([CH3])[N]=C=[N][Sn]([CH3])([CH3])[CH3]
inactive: dose: 0.4 mg/kg/injection, schedule: Q01DX005 (ip), vehicle: saline 100 % of control | dose: 0.8 mg/kg/injection, schedule: Q01DX005 (ip), vehicle: saline 101 % of control

C/C(CC(c1ccccc1)N1CCc2ccccc2C1)=N/O (stereo unspecified)
inactive: [16] 100 % of control | [17] 100 % of control | [18] 100 % of control
